18 molecules from patent publication US20220402948A1, “EGFR INHIBITOR, COMPOSITION AND PREPARATION METHOD THEREFOR” (BETTA PHARMACEUTICALS CO., LTD., priority 2019, published 2022) can be followed below.

For orientation: IC50 means the point on the concentration scale where inhibition reaches its midpoint.

Common to all, as to type: biochemical
In one experiment the target is EGFRΔ19del/T790M/C797S (Homo sapiens, UniProt P00533, T790M/C797S, form not given). Nature of the experiment: EGFR Δ19del/T790M/C797S kinase test (mobility variation analysis, Caliper EZ Reader). The conditions noted are these: kinase enzymatic activity, Table 1. As to the method:
(§1) Mobility variation analysis was performed to determine the affinity of the compound for EGFRΔ19del/T790M/C797S, EGFR WT and IGF1R. The enzymatic reaction scheme is as follows:
(§2) 1. Prepare 1*kinase buffer as follows.
(§3) 3. […] Prepare 2.5-fold final concentration of kinase solution with 1×Kinase buffer.
(§4) 4. Add 10 μL of 2.5-fold final concentration of kinase solution to the compound well and the positive control well; add 10 μL of 1×Kinase buffer to the negative control well.
(§5) 5. Centrifuge at 1000 rpm for 30 s, shake the reaction plate for well mixing, and then incubate at room temperature for 10 minutes.
(§6) 6. Prepare a mixture of ATP and Kinase substrate at 5/3-fold final concentration with 1×Kinase buffer.
(§7) 8. Centrifuge the 384-well plate at 1000 rpm for 30 s, shake it well and then incubate it at room temperature for corresponding time.
(§8) 9. Add 30 μL of stop detection solution to stop the kinase reaction, centrifuge at 1000 rpm for 30 s, and shake it well.
(§9) 10. Read conversion rate with Caliper EZ Reader.
(§10) % Inhibition=((Conversion%_max−Conversion%_sample)/(Conversion%_max−Conversion%_min))*100
(§11) Wherein: Conversion%_sample is the sample conversion rate reading; Conversion%_min: Mean value of negative control wells, representing the conversion rate reading of wells without enzymatic activity; Conversion%_max: Mean value of positive control wells, representing the conversion rate reading of wells without compound inhibition.
(§12) The dose-effect curve was fitted with concentration log value as X-axis and percentage inhibition rate as Y-axis. GraphPad Prism 5 analysis software was used for fitting Log (inhibitor) vs. response—Variable slope with the dose-effect curve to obtain IC50 value of enzymatic activity for each compound.
(§13) The calculation formula is as Y-Bottom+(Top-Bottom)/(1+10^((Log IC50−X)*HillSlope)).

The next experiment deals with EGFR WT (Homo sapiens, UniProt P00533). Description: EGFR WT kinase test (mobility variation analysis, Caliper EZ Reader). The conditions noted are these: kinase enzymatic activity, Table 1. How it is done: as §1, §2, §3, §4, §5, §6, §7, §8, §9, §10, §11, §12, §13
Chain of EGFR WT (P00533 25-1210): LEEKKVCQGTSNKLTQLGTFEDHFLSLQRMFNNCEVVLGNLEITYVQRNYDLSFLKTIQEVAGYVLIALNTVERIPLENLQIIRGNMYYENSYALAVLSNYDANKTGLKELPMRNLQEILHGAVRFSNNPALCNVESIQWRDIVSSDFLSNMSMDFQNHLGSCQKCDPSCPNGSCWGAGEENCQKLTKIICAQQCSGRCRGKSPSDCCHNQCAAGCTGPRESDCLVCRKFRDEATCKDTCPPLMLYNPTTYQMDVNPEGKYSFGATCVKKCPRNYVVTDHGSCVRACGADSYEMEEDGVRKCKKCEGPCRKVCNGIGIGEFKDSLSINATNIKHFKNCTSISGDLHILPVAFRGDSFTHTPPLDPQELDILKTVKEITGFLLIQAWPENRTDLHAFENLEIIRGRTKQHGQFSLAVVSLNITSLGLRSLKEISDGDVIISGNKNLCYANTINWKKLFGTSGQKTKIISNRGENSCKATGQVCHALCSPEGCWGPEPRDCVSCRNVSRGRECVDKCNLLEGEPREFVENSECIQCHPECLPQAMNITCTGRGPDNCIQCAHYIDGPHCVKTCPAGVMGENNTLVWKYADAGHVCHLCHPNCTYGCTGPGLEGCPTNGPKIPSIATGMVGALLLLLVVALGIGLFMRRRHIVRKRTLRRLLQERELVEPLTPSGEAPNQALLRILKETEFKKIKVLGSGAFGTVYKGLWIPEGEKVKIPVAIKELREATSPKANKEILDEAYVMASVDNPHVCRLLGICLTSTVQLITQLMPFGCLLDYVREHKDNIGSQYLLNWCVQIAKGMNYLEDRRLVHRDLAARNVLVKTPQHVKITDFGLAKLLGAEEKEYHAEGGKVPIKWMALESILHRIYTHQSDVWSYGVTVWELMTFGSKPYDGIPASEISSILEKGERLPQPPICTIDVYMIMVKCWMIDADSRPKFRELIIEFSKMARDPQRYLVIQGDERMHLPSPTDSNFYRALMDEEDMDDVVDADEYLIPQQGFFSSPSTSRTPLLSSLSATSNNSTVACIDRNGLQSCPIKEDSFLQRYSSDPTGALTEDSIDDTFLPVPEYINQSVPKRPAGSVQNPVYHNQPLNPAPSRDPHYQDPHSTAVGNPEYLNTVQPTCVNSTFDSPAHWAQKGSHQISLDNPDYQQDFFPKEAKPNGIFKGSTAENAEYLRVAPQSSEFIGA
A further experiment has as its target IGF1R (Homo sapiens, UniProt P08069). Description: IGF1R kinase test (mobility variation analysis, Caliper EZ Reader). The conditions noted are these: kinase enzymatic activity, Table 1; read-out: EGFR IGF1R IC50. As to the method: as §1, §2
2. Preparation of compound concentration gradient: The test compound was tested with an initial concentration of 3000 nM (300 nM for some triple mutations and 100 nM for others), diluted in a 384 source plate (96-well plate for comparative compound 1 and compounds 1-38) to a 100% DMSO solution with 100-fold final concentration, and the compound is 3-fold diluted with Precision to 10 concentrations. A dispenser Echo 550 was used to transfer 250 nL 100-fold final concentration of the compound to the target plate OptiPlate-384F.
3. Prepare 2.5-fold final concentration (5-fold for comparative compound 1 and compounds 1-38) of kinase solution with 1×Kinase buffer. Following steps should also be carried out for comparative compound 1 and compounds 1-38: Add each prepared intermediate dilution compounds to the compound wells of 384-well plate respectively, and test the repeated wells of each concentration; add 5% DMSO of 5 plates into the negative control well and the positive control well respectively. Prepare 2.5-fold final concentration of kinase solution with 1×Kinase buffer.
as §4, §5, §6
7. Add 15 μL mixture of 5/3-fold (2.5-fold for comparative compound 1 and compounds 1-38) final concentration of ATP and substrate to start reaction.
as §7, §8, §9, §10, §11, §12, §13

Molecules are shown by their SMILES.

Chain of EGFRΔ19del/T790M/C797S (P00533 with tags, fused parts or gaps DEL746-750/T790M/C797S, form open): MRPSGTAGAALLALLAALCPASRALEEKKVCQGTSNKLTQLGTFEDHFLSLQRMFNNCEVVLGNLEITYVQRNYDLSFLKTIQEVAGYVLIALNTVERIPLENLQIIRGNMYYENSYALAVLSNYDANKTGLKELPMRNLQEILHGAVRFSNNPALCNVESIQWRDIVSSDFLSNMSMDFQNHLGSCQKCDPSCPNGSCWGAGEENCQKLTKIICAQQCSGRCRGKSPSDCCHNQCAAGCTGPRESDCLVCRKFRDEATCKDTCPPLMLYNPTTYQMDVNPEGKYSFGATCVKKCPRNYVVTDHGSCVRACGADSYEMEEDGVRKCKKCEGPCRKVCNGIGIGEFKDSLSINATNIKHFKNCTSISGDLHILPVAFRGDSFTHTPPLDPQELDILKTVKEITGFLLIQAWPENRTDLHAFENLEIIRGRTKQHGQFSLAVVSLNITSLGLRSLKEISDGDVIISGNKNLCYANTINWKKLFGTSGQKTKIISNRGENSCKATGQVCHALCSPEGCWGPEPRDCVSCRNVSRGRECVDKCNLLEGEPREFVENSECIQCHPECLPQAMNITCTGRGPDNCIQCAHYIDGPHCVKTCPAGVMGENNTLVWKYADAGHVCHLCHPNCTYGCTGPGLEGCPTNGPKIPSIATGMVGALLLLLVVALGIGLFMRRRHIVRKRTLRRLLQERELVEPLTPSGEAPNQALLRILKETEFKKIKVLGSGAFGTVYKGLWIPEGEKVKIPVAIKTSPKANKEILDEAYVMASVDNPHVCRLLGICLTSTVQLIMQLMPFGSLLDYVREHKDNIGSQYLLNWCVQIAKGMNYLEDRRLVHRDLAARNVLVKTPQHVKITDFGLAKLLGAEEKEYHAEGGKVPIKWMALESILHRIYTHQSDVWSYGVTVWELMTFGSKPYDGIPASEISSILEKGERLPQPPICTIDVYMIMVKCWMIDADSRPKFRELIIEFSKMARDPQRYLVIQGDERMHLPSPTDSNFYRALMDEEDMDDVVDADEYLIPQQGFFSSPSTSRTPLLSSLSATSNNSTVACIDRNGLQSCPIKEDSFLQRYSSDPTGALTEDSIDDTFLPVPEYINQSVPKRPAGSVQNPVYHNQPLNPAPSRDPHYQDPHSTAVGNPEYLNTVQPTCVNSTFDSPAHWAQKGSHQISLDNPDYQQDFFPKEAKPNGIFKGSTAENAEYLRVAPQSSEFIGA
Chain of IGF1R (P08069 31-1367, species assumed): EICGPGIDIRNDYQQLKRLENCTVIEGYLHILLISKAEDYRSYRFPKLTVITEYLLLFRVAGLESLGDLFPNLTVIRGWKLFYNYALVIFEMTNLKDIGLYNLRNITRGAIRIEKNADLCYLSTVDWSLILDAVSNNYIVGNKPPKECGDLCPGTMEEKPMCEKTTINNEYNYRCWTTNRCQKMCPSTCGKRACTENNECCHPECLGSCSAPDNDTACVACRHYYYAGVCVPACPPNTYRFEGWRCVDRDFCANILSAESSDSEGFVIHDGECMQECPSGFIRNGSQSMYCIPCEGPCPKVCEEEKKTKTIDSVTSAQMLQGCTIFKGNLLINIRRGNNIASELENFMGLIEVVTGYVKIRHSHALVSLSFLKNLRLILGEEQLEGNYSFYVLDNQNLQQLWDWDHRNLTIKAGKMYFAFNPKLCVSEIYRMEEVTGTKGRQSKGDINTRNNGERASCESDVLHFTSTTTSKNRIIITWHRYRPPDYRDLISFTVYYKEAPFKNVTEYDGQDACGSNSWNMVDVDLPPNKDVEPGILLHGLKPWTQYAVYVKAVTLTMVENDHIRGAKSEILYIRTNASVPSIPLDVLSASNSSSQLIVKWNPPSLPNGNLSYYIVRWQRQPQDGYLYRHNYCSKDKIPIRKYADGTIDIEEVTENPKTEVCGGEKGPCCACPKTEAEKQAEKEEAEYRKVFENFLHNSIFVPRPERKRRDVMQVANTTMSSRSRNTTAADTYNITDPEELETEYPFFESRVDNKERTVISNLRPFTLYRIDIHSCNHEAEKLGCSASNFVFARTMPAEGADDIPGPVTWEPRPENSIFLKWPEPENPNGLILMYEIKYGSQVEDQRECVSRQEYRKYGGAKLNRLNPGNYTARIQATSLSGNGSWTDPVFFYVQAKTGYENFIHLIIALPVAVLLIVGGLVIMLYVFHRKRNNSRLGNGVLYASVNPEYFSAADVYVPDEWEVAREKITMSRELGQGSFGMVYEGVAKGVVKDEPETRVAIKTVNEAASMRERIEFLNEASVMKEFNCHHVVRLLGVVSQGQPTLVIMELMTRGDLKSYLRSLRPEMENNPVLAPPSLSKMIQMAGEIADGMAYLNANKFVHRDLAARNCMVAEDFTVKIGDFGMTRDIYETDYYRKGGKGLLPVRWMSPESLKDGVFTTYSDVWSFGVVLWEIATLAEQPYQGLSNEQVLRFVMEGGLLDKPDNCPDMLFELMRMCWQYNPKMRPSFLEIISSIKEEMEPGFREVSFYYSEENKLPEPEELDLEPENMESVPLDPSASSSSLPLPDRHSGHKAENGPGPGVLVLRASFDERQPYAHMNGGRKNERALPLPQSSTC

`CCc1cc(Nc2ncc(Br)c(Nc3ccc(-c4ccn[nH]4)cc3P(C)(C)=O)n2)c(OC)cc1N1CCC(N2CCN(C)CC2)CC1` [Compound 39, (2-((5-Bromo-2-((5-ethyl-2-methoxy-4-(4-(4-methylpiperazin-1-yl)piperidin-1-yl)phenyl)amino)pyrimidin-4-yl)amino)-5-(1H-pyrazol-5-yl)phenyl)dimethylphosphine oxide]: the results for the IC50 on EGFRΔ19del/T790M/C797S, at EGFR WT and at IGF1R were 0.4 nM, 18.3 nM and 138 nM, respectively.

As for `CCc1cc(Nc2ncc(Cl)c(Nc3ccc(-c4cnn5c4CC(C)(C)C5)cc3P(C)(C)=O)n2)c(OC)cc1N1CCC(N2CCN(C)CC2)CC1` [Compound 41, (2-((5-Chloro-2-((5-ethyl-2-methoxy-4-(4-(4-methylpiperazin-1-yl)piperidin-1-yl)phenyl)amino)pyrimidin-4-yl)amino)-5-(5,5-dimethyl-5,6-dihydro-tetrahydro-pyrrolo[1,2-b]pyrazol-3-)phenyl)dimethylphosphine oxide], the values for the IC50 on EGFRΔ19del/T790M/C797S, against EGFR WT and at IGF1R were 1.5 nM, 58.9 nM and 748 nM, respectively.

With `CCc1cc(Nc2ncc(Br)c(Nc3ccc(-c4cn(C)c5cccnc45)cc3P(C)(C)=O)n2)c(OC)cc1N1CCC(N2CCN(C)CC2)CC1` [Compound 42], the IC50 is 1.24 nM on EGFRΔ19del/T790M/C797S, 86.2 nM against EGFR WT and 1170 nM on IGF1R.

In the case of `CCc1cc(Nc2ncc(Br)c(Nc3ccc(-c4cc5cc(C#N)ccc5[nH]4)cc3P(C)(C)=O)n2)c(OC)cc1N1CCC(N2CCN(C)CC2)CC1` [Compound 43], the IC50 came to 2.5 nM against EGFRΔ19del/T790M/C797S, 82.5 nM against EGFR WT and 748 nM at IGF1R.

Turning to `CCc1cc(Nc2ncc(Cl)c(Nc3ccc(-c4cn[nH]c4)cc3P(C)(C)=O)n2)c(OC)cc1N1CCC(N2CCN(C)CC2)CC1` [Compound 48, (2-((5-Chloro-2-((5-ethyl-2-methoxy-4-(4-(4-methylpiperazin-1-yl)piperidin-1-yl)phenyl)amino)pyrimidin-4-yl)amino)-5-(1H-pyrazol-4-yl)phenyl)dimethylphosphine oxide], the IC50 against EGFRΔ19del/T790M/C797S turned out to be 0.3 nM; on IGF1R, 112 nM.

With `CCc1cc(Nc2ncc(Br)c(Nc3ccc(-n4cccn4)cc3P(C)(C)=O)n2)c(OC)cc1N1CCC(N2CCN(C)CC2)CC1` [Compound 49, (2-((5-Bromo-2-((5-ethyl-2-methoxy-4-(4-(4-methylpiperazin-1-yl)piperidin-1-yl)phenyl)amino)pyrimidin-4-yl)amino)-5-(1H-pyrazol-1-yl)phenyl)dimethylphosphine oxide], the IC50 stood at 4.1 nM against EGFRΔ19del/T790M/C797S, 416 nM against EGFR WT and 2780 nM on IGF1R.

For the molecule `CCc1cc(Nc2ncc(Br)c(Nc3ccc(-c4cccc5cc[nH]c45)cc3P(C)(C)=O)n2)c(OC)cc1N1CCC(N2CCN(C)CC2)CC1` [Compound 52], the figures for the IC50 against EGFRΔ19del/T790M/C797S, against EGFR WT and on IGF1R were 1.9 nM, 203 nM and 1910 nM, respectively.

In the case of `CCc1cc(Nc2ncc(Cl)c(Nc3ccc(-c4cnccc4OC)cc3P(C)(C)=O)n2)c(OC)cc1N1CCC(N2CCN(C)CC2)CC1` [Compound 53, (2-((5-Chloro-2-((5-ethyl-2-methoxy-4-(4-(4-methylpiperazin-1-yl)piperidin-1-yl)phenyl)amino)pyrimidin-4-yl)amino)-5-(4-methoxypyridin-3-yl)phenyl)dimethylphosphine oxide], the IC50 came out at 0.6 nM at EGFRΔ19del/T790M/C797S, 64 nM at EGFR WT and 1100 nM on IGF1R.

For `CCc1cc(Nc2ncc(Br)c(Nc3ccc(-c4c(C)cnn4C)cc3P(C)(C)=O)n2)c(OC)cc1N1CCC(N2CCN(C)CC2)CC1` [Compound 54], the figures for the IC50 on EGFRΔ19del/T790M/C797S, against EGFR WT and on IGF1R were 0.6 nM, 42.2 nM and 624 nM, respectively.

As to `CCc1cc(Nc2ncc(Cl)c(Nc3ccc(-c4ccnc5c4ccn5C)cc3P(C)(C)=O)n2)c(OC)cc1N1CCC(N2CCN(C)CC2)CC1` [Compound 56, (2-((5-Chloro-2-((5-ethyl-2-methoxy-4-(4-(4-methylpiperazin-1-yl)piperidin-1-yl)phenyl)amino)pyrimidin-4-yl)amino)-5-(1-methyl-1H-pyrrolo[2,3-b]pyridin-4-yl)phenyl)dimethylphosphine oxide], the IC50 is 2.4 nM at EGFRΔ19del/T790M/C797S, 72.5 nM at EGFR WT and 886 nM at IGF1R.

With `CCOc1noc(C)c1-c1ccc(Nc2nc(Nc3cc(CC)c(N4CCC(N5CCN(C)CC5)CC4)cc3OC)ncc2Cl)c(P(C)(C)=O)c1` [Compound 58, (2-((5-Chloro-2-((5-ethyl-2-methoxy-4-(4-(4-methylpiperazin-1-yl)piperidin-1-yl)phenyl)amino)pyrimidin-4-yl)amino)-5-(3-ethoxy-5-methylisoxazol-4-yl)phenyl)dimethylphosphine oxide], the IC50 on EGFRΔ19del/T790M/C797S was determined as 3.7 nM; at EGFR WT, 65 nM; on IGF1R, 274 nM.

Consider `CCc1cc(Nc2ncc(Br)c(Nc3ccc(-c4ncsc4C)cc3P(C)(C)=O)n2)c(OC)cc1N1CCC(N2CCN(C)CC2)CC1` [Compound 60], for which the values for the IC50 against EGFRΔ19del/T790M/C797S, against EGFR WT and on IGF1R were 0.6 nM, 47 nM and 418 nM, respectively.

For the molecule `CCc1cc(Nc2ncc(Br)c(Nc3ccc(-c4ncnn4C)cc3P(C)(C)=O)n2)c(OC)cc1N1CCC(N2CCN(C)CC2)CC1` [Compound 62, (2-((5-Bromo-2-((5-ethyl-2-methoxy-4-(4-(4-methylpiperazin-1-yl)piperidin-1-yl)phenyl)amino]pyrimidin-4-yl)amino)-5-(1-methyl-1H-1,2,4-triazol-5-yl)phenyl)dimethylphosphine oxide], the IC50 was determined as 0.8 nM at EGFRΔ19del/T790M/C797S, 216 nM against EGFR WT and 992 nM on IGF1R.

Consider `CCc1cc(Nc2ncc(Br)c(Nc3ccc(-c4cn(C)cn4)cc3P(C)(C)=O)n2)c(OC)cc1N1CCC(N2CCN(C)CC2)CC1` [Compound 68, (2-((5-Bromo-2-((5-ethyl-2-methoxy-4-(4-(4-methylpiperazin-1-yl)piperidin-1-yl)phenyl)amino)pyrimidin-4-yl)amino)-5-(1-methyl-1H-imidazol-4-yl)phenyl)dimethylphosphine oxide], for which the IC50 against EGFRΔ19del/T790M/C797S is 0.9 nM; against EGFR WT, 84.7 nM; on IGF1R it was 663 nM.

Consider `CCc1cc(Nc2ncc(Br)c(Nc3ccc(-c4nccn4C4CC4)cc3P(C)(C)=O)n2)c(OC)cc1N1CCC(N2CCN(C)CC2)CC1` [Compound 69], for which the IC50 is 4 nM against EGFRΔ19del/T790M/C797S, 316 nM on EGFR WT and 1940 nM at IGF1R.

As for `CCc1cc(Nc2ncc(Br)c(Nc3ccc(-c4cccc(N(C)C)n4)cc3P(C)(C)=O)n2)c(OC)cc1N1CCC(N2CCN(C)CC2)CC1` [Compound 71], the concentration for half-maximal inhibition (IC50) against EGFRΔ19del/T790M/C797S was determined as 1.3 nM; against EGFR WT it was 55.1 nM; on IGF1R, 714 nM.

With `CCc1cc(Nc2ncc(Cl)c(Nc3ccc(-c4cccc5ocnc45)cc3P(C)(C)=O)n2)c(OC)cc1N1CCC(N2CCN(C)CC2)CC1` [Compound K-052, (5-(Benzo[d]oxazol-4-yl)-2-((5-chloro-2-((5-ethyl-2-methoxy-4-(4-(4-methylpiperazin-1-yl)piperidin-1-yl)phenyl)amino)pyrimidin-4-yl)amino)phenyl)dimethylphosphine oxide], the IC50 against EGFRΔ19del/T790M/C797S is 1.6 nM; against EGFR WT, 44 nM; at IGF1R, 886 nM.

`CCn1cc(-c2cc(Nc3ncc(Br)c(Nc4ccc(-c5nn(C)c6ncccc56)cc4P(C)(C)=O)n3)c(OC)cc2N2CCC(N3CCN(C)CC3)CC2)cn1` [Compound K-102, (2-((5-Bromo-2-((5-(1-ethyl-1H-pyrazol-4-yl)-2-methoxy-4-(4-(4-methylpiperazin-1-yl)piperidin-1-yl)phenyl)amino)pyrimidin-4-yl)amino)-5-(1-methyl-1H-pyrazolo[3,4-b]pyridin-3-yl)phenyl)dimethylphosphine oxide] displayed an IC50 against EGFRΔ19del/T790M/C797S of 0.3 nM.
